Data published in PubChem BioAssay AID2060333 (Molecular Pharmacology Branch, DTP, NCI, 2025).

System: 845751-090-R-J2-PDC tumor spheroid viability
Assay: Anticancer human tumor 845751-090-R-J2-PDC patient-derived head and neck squamous carcinoma cell line growth inhibition [IpAb]
Conditions: spheroids with HUVEC and MSC; for IC50: curve of first compound; for viability, T/C: stronger effect = lower value; active means viability on the fitted dose curve at most 10% of control; inactive means the rest
In short: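 Spheroids of 60% malignant cells, 25% HUVEC and 15% MSC were exposed to targeted agents combined with ipatasertib or abemaciclib. Doses started at or near clinical Cmax (10 microM when unknown) and fell in half-log steps.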

[1] = second compound 0.01 µM, first compound 0.00949 µM
[2] = second compound 0.01 µM, first compound 0.03 µM
[3] = second compound 0.01 µM, first compound 0.0949 µM
[4] = second compound 0.01 µM, first compound 0.3 µM
[5] = second compound 0.0316 µM, first compound 0.00949 µM
[6] = second compound 0.0316 µM, first compound 0.03 µM
[7] = second compound 0.0316 µM, first compound 0.0949 µM
[8] = second compound 0.0316 µM, first compound 0.3 µM
[9] = second compound 0.1 µM, first compound 0.00949 µM
[10] = second compound 0.1 µM, first compound 0.03 µM
[11] = second compound 0.1 µM, first compound 0.0949 µM
[12] = second compound 0.1 µM, first compound 0.3 µM
[13] = second compound 0.316 µM, first compound 0.00949 µM
[14] = second compound 0.316 µM, first compound 0.03 µM
[15] = second compound 0.316 µM, first compound 0.0949 µM
[16] = second compound 0.316 µM, first compound 0.3 µM
[17] = second compound 1 µM, first compound 0.00949 µM
[18] = second compound 1 µM, first compound 0.03 µM
[19] = second compound 1 µM, first compound 0.0949 µM
[20] = second compound 1 µM, first compound 0.3 µM
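Further: spheroids exposed to compounds for 7 days before readout.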
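Wherever viability, T/C is given: CTG3D luminescence normalised so that 100% = DMSO vehicle control.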

CC(=O)c1c(C)c2cnc(Nc3ccc(N4CCNCC4)cn3)nc2n(C2CCCC2)c1=O + CCN1CCN(Cc2ccc(Nc3ncc(F)c(-c4cc(F)c5nc(C)n(C(C)C)c5c4)n3)nc2)CC1
> 300 nM: IC50 (second compound 0.01 µM) | IC50 (second compound 0.0316 µM) | IC50 (second compound 0.1 µM) | IC50 (second compound 0.316 µM) | IC50 (second compound 1 µM)
inactive: viability, T/C (second compound 0.01 µM, first compound 0.000949 µM) 115% | viability, T/C (second compound 0.01 µM, first compound 0.003 µM) 93.8% | viability, T/C [1] 84.8% | viability, T/C [2] 91% | viability, T/C [3] 93.4% | viability, T/C [4] 76.7% | viability, T/C (second compound 0.0316 µM, first compound 0.000949 µM) 77.2% | viability, T/C (second compound 0.0316 µM, first compound 0.003 µM) 62.8% | viability, T/C [5] 63.6% | viability, T/C [6] 73.9% | viability, T/C [7] 65.5% | viability, T/C [8] 59.2% | viability, T/C (second compound 0.1 µM, first compound 0.000949 µM) 49.8% | viability, T/C (second compound 0.1 µM, first compound 0.003 µM) 71.8% | viability, T/C [9] 75.4% | viability, T/C [10] 71.2% | viability, T/C [11] 75.9% | viability, T/C [12] 65.8% | viability, T/C (second compound 0.316 µM, first compound 0.000949 µM) 53.1% | viability, T/C (second compound 0.316 µM, first compound 0.003 µM) 69.7% | viability, T/C [13] 88% | viability, T/C [14] 81.7% | viability, T/C [15] 61% | viability, T/C [16] 50.6% | viability, T/C (second compound 1 µM, first compound 0.000949 µM) 90.4% | viability, T/C (second compound 1 µM, first compound 0.003 µM) 86.4% | viability, T/C [17] 99.5% | viability, T/C [18] 77.7% | viability, T/C [19] 70.9% | viability, T/C [20] 53.6%

CC(C)(C)c1cnc(CSc2cnc(NC(=O)C3CCNCC3)s2)o1 + CCN1CCN(Cc2ccc(Nc3ncc(F)c(-c4cc(F)c5nc(C)n(C(C)C)c5c4)n3)nc2)CC1
36.5 nM: IC50 (second compound 0.316 µM)
active: viability, T/C [4] 1.28% | viability, T/C (second compound 0.01 µM, first compound 0.949 µM) 1.21% | viability, T/C (second compound 0.01 µM, first compound 3 µM) 1.79% | viability, T/C [8] 1.59% | viability, T/C (second compound 0.0316 µM, first compound 0.949 µM) 0.68% | viability, T/C (second compound 0.0316 µM, first compound 3 µM) 0.88% | viability, T/C [12] 1.77% | viability, T/C (second compound 0.1 µM, first compound 0.949 µM) 0.43% | viability, T/C (second compound 0.1 µM, first compound 3 µM) 0.69% | viability, T/C [16] 0.79% | viability, T/C (second compound 0.316 µM, first compound 0.949 µM) 0.67% | viability, T/C (second compound 0.316 µM, first compound 3 µM) 0.6% | viability, T/C [19] 3.89% | viability, T/C [20] 2.43% | viability, T/C (second compound 1 µM, first compound 0.949 µM) 1.4% | viability, T/C (second compound 1 µM, first compound 3 µM) 0.76%
71.4 nM: IC50 (second compound 0.0316 µM)
38.4 nM: IC50 (second compound 1 µM)
inactive: viability, T/C [1] 112% | viability, T/C [2] 91.9% | viability, T/C [3] 55% | viability, T/C [5] 92.8% | viability, T/C [6] 102% | viability, T/C [7] 34.5% | viability, T/C [9] 90.5% | viability, T/C [10] 69.6% | viability, T/C [11] 27.7% | viability, T/C [13] 76% | viability, T/C [14] 57.9% | viability, T/C [15] 11.5% | viability, T/C [17] 62% | viability, T/C [18] 63.1%
51.2 nM: IC50 (second compound 0.1 µM)
97.3 nM: IC50 (second compound 0.01 µM)

Cn1nccc1Nc1nccc(-c2ccn(C(CO)c3ccc(Cl)c(F)c3)c(=O)c2)n1 (stereo not given) + CCN1CCN(Cc2ccc(Nc3ncc(F)c(-c4cc(F)c5nc(C)n(C(C)C)c5c4)n3)nc2)CC1
inactive: viability, T/C (second compound 0.01 µM, first compound 0.0316 µM) 185% | viability, T/C (second compound 0.01 µM, first compound 0.1 µM) 202% | viability, T/C (second compound 0.01 µM, first compound 0.316 µM) 192% | viability, T/C (second compound 0.01 µM, first compound 1 µM) 227% | viability, T/C (second compound 0.01 µM, first compound 3.16 µM) 198% | viability, T/C (second compound 0.01 µM, first compound 10 µM) 135% | viability, T/C (second compound 0.0316 µM, first compound 0.0316 µM) 143% | viability, T/C (second compound 0.0316 µM, first compound 0.1 µM) 191% | viability, T/C (second compound 0.0316 µM, first compound 0.316 µM) 216% | viability, T/C (second compound 0.0316 µM, first compound 1 µM) 211% | viability, T/C (second compound 0.0316 µM, first compound 3.16 µM) 169% | viability, T/C (second compound 0.0316 µM, first compound 10 µM) 133% | viability, T/C (second compound 0.1 µM, first compound 0.0316 µM) 154% | viability, T/C (second compound 0.1 µM, first compound 0.1 µM) 190% | viability, T/C (second compound 0.1 µM, first compound 0.316 µM) 181% | viability, T/C (second compound 0.1 µM, first compound 1 µM) 204% | viability, T/C (second compound 0.1 µM, first compound 3.16 µM) 185% | viability, T/C (second compound 0.1 µM, first compound 10 µM) 132% | viability, T/C (second compound 0.316 µM, first compound 0.0316 µM) 156% | viability, T/C (second compound 0.316 µM, first compound 0.1 µM) 178% | viability, T/C (second compound 0.316 µM, first compound 0.316 µM) 210% | viability, T/C (second compound 0.316 µM, first compound 1 µM) 204% | viability, T/C (second compound 0.316 µM, first compound 3.16 µM) 174% | viability, T/C (second compound 0.316 µM, first compound 10 µM) 106% | viability, T/C (second compound 1 µM, first compound 0.0316 µM) 161% | viability, T/C (second compound 1 µM, first compound 0.1 µM) 211% | viability, T/C (second compound 1 µM, first compound 0.316 µM) 224% | viability, T/C (second compound 1 µM, first compound 1 µM) 215% | viability, T/C (second compound 1 µM, first compound 3.16 µM) 171% | viability, T/C (second compound 1 µM, first compound 10 µM) 86.3%
> 10000 nM: IC50 (second compound 0.01 µM) | IC50 (second compound 0.0316 µM) | IC50 (second compound 0.1 µM) | IC50 (second compound 0.316 µM) | IC50 (second compound 1 µM)
